Experimental data from patent US12478694B2, “H2O2-responsive crosslinking near-infrared molecular probe for tumor microenvironment and use therefor” (SOOCHOW UNIVERSITY, priority 2019, dated 2025).

Tests used:
4T1 cells [1] = assay: Co-localization of intracellular probe and intracellular mitochondria; assay type: cell-based, mouse; settings: 5 μM probe, incubated 12 hours
Procedure: Based on the method described in Example 2, 4T1 cells were seeded in a confocal small dish with 1.5×10^4 cells per well, placed in an incubator for 24 hours, and then the culture medium was discarded. The H2O2 responsive NIR molecular probe prepared in Example 1 was diluted with a culture medium to a concentration of 5 μM, and then added to a 4T1 cell culture dish, and placed in a cell incubator to incubate for 12 hours. After the probe and 4T1 cell incubation time was over, the cells were incubated with mitochondrial dye and Hoechst 33342 respectively, and the co-localization of the probe with mitochondria in 4T1 cells at the same time was observed using a confocal microscope.

4T1 = assay: Cytotoxicity of the probe by MTT (thiazole blue) colorimetry; assay type: cell-based, mouse; settings: 4T1 cells
Procedure: (§1) After diluting the H2O2 responsive NIR molecular probe prepared in Example 1 with methanol to a concentration of 1 μM, an ultraviolet-visible absorption spectrometer and a steady-state/transient fluorescence spectrometer were used to measure the ultraviolet absorption spectrum and fluorescence of the probe. Spectrum: The cytotoxicity of the probe to 4T1 was investigated by MTT (thiazole blue) colorimetry.

4T1 cells [2] = assay: Retention of the probe in 4T1 cells treated with hydrogen peroxide, confocal fluorescence; assay type: cell-based, mouse
Procedure: The 4T1 cells were first treated with 100 μM hydrogen peroxide for 15 min, and then the H2O2 responsive NIR molecular probe DATC prepared in Example 1 was diluted into the cell culture medium, and then added to the 4T1 cell culture dish and incubated (The probe concentration is 5 μM). The sulfhydryl group on the protein in 4T1 cells treated with hydrogen oxide will be oxidized to sulfenic acid. When the probe entered into the tumor cell, the group 3,5-dioxocyclohexane carboxylic acid will interact with sulfenic acid cross-linking forms a CS covalent bond, so that the probe molecule is firmly connected to the macromolecular protein in the tumor cell, thereby prolonging the residence time of the molecular probe in the tumor cell, and improving the imaging effect of the probe molecule.
Based on the method described in Example 2, 4T1 cells were seeded in a confocal small dish, 1.5×10^4 cells per well, and placed in an incubator for 24 hours. After diluting hydrogen peroxide to 100 μM with cell culture medium, it was added to a culture dish of 4T1 cells and incubated for 15 minutes, and then the culture medium was discarded. The H2O2 responsive NIR molecular probe prepared in Example 1 was diluted with a culture medium to a concentration of 5 μM, and then added to the 4T1 cell culture dish, and placed in a cell incubator for 8 hours. After incubation of the probe and 4T1 cell, added new cell culture medium and continue culturing in the incubator for 4h, 8h, 12h and 24h. Then stained the nucleus with Hoechst33342 dye solution, and observed the fluorescence in 4T1 cells at different times after hydrogen peroxide treatment with a laser confocal microscope. The fluorescent probe (TC) without 3,5-dioxocyclohexane carboxylic acid was used as a control example, and a unified experimental method was adopted.

[3] = test system: 4T1 mouse breast cancer tumor in BALB/c/nu female nude mice; assay: NIR fluorescence imaging of the probe at the tumor site in mice; assay type: in vivo; settings: intratumoral injection, 100 μM, 50 μL
Procedure: BALB/c/nu female nude mice inoculated with 4T1 mouse breast cancer cells were randomly divided into two groups with 5 mice in each group. After the tumor on the right forelimb of the mouse grows up, the probes DATC and TC are injected into the tumors of the two groups of nude mice by intratumoral injection, at a concentration of 100 μM (50 μL/each). Then put the probe-injected mice in the small animal IVIS Lumina XRMS live imaging system to observe the changes in the fluorescence intensity of the probe in the nude mouse tumor over time, and calculate the experimental group probe and the control group through the IVIS live imaging analysis software The fluorescence intensity of the probe at different time points at the tumor site in nude mice.

[4] = Ultraviolet absorption spectrum and fluorescence spectrum of the probe; assay type: physicochemical; settings: probe diluted with methanol to 1 μM
Procedure: as §1

4T1 cells [5] = assay: Immunofluorescence of the probes in hydrogen peroxide treated 4T1 cells after re-culturing for 12 hours; assay type: cell-based, mouse; settings: 100 μM H2O2 15 min, 5 μM probe 8 h, re-culture 12 hours
Procedure: Based on the method described in Example 2, 4T1 cells were seeded in a confocal small dish, 1.5×10^4 cells per well, and placed in an incubator for 24 hours. After diluting hydrogen peroxide to 100 μM with cell culture medium, it was added to a culture dish of 4T1 cells and incubated for 15 minutes, and then the culture medium was discarded. The H2O2 responsive NIR molecular probe prepared in Example 1 was diluted with a culture medium to a concentration of 5 μM, and then added to a 4T1 cell culture dish, and placed in a cell incubator for 8 hours. After the incubation time of the probe and 4T1 cells is over, add new cell culture medium and continue culturing in the incubator for 12 hours. Subsequently, the cells were fixed with 4% paraformaldehyde at room temperature for 15 minutes, and then washed with PBS; secondly, 0.5% Trition-100 and 4T1 cells were incubated at room temperature for 5 minutes; the antibody anticysteine sulfenic acid was incubated at room temperature. After 1 hour, the antibody was washed with PBS, and then incubated at 37° C. for 30 minutes with goat anti-rabbit-Cy3. Finally, the nucleus was stained with Hoechst 33342 staining solution. […] The fluorescent probe (TC) without 3,5-dioxocyclohexane carboxylic acid was used as a control, and a unified experimental method was adopted.

For C[N+]1=C(/C=C/C=C/C=C2/N(CCCCCC(=O)NCCCn3cc(CNC(=O)[C@H](CCCCNC(=O)C4CC(=O)CC(=O)C4)NC(=O)CCC[P+](c4ccccc4)(c4ccccc4)c4ccccc4)nn3)c3ccc(S(=O)(=O)O)cc3C2(C)C)C(C)(C)c2cc(S(=O)(=O)O)ccc21 [DATC], the “co-localization of the probe with mitochondria” value (4T1 cells [1]) was “basically coincide”, the “killing effect on the cells as the concentration increases” value (4T1) was “no killing effect on the cells” and the “red fluorescence intensity in 4T1 cells 8 hours after washing off the probe, versus control probe” value (4T1 cells [2]; 100 μM H2O2 15 min, 5 μM probe 8 h, re-culture 8 h) was “significantly stronger”. The “fluorescence signal in 4T1 cells 24h later” value (4T1 cells [2]; 100 μM H2O2 15 min, 5 μM probe 8 h, re-culture 24 h) was “strong fluorescence signal”, the “time the probe can stay in the cell” value (4T1 cells [2]; fluorescence quantitative data, H2O2-treated 4T1 cells, 5 μM probe) was ≥ 24 h and the “duration of the fluorescent signal at the tumor site” value [3] was 36 h. The “fluorescence signal of the probe at the tumor site at 2h” value ([3]; 2h) was “only slightly decreased”, the “fluorescence signal of the probe at the tumor site at 12h” value ([3]; 12h) was “obvious fluorescence signal” and the max absorption peak ([4]; UV absorption spectrum) was 646 nm. The maximum emission ([4]; fluorescence spectrum) was 670 nm and the “content / fluorescent signal of probe in cells” value (4T1 cells [5]) was “relatively high”.
